Results published in PMC12028158, “Synthesis and In Vitro Evaluation of the Anticancer Effect of Novel Phosphonium Vindoline Derivatives” (International Journal of Molecular Sciences, 2025).

Key:
Format in all cases: cell-based
[1] = system: HCC-2998; test: NCI60 five-dose screen; conditions: Homo sapiens, HCC 2998
[2] = system: CAKI-1; test: NCI60 one-dose screen; conditions: Homo sapiens, CAKI-1, read-out: Growth percent
[3] = system: UO-31; test: NCI60 one-dose screen; conditions: Homo sapiens, UO-31, read-out: Growth percent
[4] = system: OVCAR-3; test: NCI60 one-dose screen; conditions: Homo sapiens, OVCAR-3, read-out: Growth percent
[5] = system: RXF 393; test: NCI60 one-dose screen; conditions: Homo sapiens, RXF 393, read-out: Growth percent
[6] = system: SK-MEL-28; test: NCI60 one-dose screen; conditions: Homo sapiens, SK-MEL-28, read-out: Growth percent
[7] = system: NCI-H23; test: NCI60 one-dose screen; conditions: Homo sapiens, NCI-H23, read-out: Growth percent
[8] = system: LOX IMVI; test: NCI60 one-dose screen; conditions: Homo sapiens, read-out: Growth percent
[9] = system: SNB-75; test: NCI60 one-dose screen; conditions: Homo sapiens, SNB-75, read-out: Growth percent
[10] = system: MALME-3M; test: NCI60 one-dose screen; conditions: Homo sapiens, Malme-3M, read-out: Growth percent
[11] = system: SK-MEL-2; test: NCI60 one-dose screen; conditions: Homo sapiens, SK-MEL-2, read-out: Growth percent
[12] = system: OVCAR-8; test: NCI60 one-dose screen; conditions: Homo sapiens, OVCAR-8, read-out: Growth percent
[13] = system: SF-539; test: NCI60 five-dose screen; conditions: Homo sapiens, SF-539
[14] = system: OVCAR-3; test: NCI60 five-dose screen; conditions: Homo sapiens, OVCAR-3
[15] = system: UACC-62; test: NCI60 one-dose screen; conditions: Homo sapiens, UACC-62, read-out: Growth percent
[16] = system: A549/ATCC; test: NCI60 one-dose screen; conditions: Homo sapiens, A549, read-out: Growth percent
[17] = system: HT29; test: NCI60 one-dose screen; conditions: Homo sapiens, HT-29, read-out: Growth percent
[18] = system: K-562; test: NCI60 five-dose screen; conditions: Homo sapiens, K562
[19] = system: CNS Cancer panel; test: NCI60 five-dose screen, panel mean; conditions: Homo sapiens, read-out: GI50 Mean
[20] = system: HOP-62; test: NCI60 one-dose screen; conditions: Homo sapiens, HOP-62, read-out: Growth percent
[21] = system: CCRF-CEM; test: NCI60 one-dose screen; conditions: Homo sapiens, read-out: Growth percent
[22] = system: RXF 393; test: NCI60 five-dose screen; conditions: Homo sapiens, RXF 393
[23] = system: HS 578T; test: NCI60 five-dose screen; conditions: Homo sapiens, Hs-578T
[24] = system: Breast Cancer panel; test: NCI60 five-dose screen, panel mean; conditions: Homo sapiens, read-out: GI50 Mean
[25] = system: SF-268; test: NCI60 five-dose screen; conditions: Homo sapiens, SF-268
[26] = system: BT-549; test: NCI60 five-dose screen; conditions: Homo sapiens, BT-549
[27] = system: HCT-15; test: NCI60 one-dose screen; conditions: Homo sapiens, HCT-15, read-out: Growth percent
[28] = system: HL-60(TB); test: NCI60 one-dose screen; conditions: Homo sapiens, HL-60, read-out: Growth percent
[29] = system: SK-MEL-28; test: NCI60 five-dose screen; conditions: Homo sapiens, SK-MEL-28
[30] = system: MALME-3M; test: NCI60 five-dose screen; conditions: Homo sapiens, Malme-3M
[31] = system: HL-60(TB); test: NCI60 five-dose screen; conditions: Homo sapiens, HL-60
[32] = system: BT-549; test: NCI60 one-dose screen; conditions: Homo sapiens, BT-549, read-out: Growth percent
[33] = system: NCI/ADR-RES; test: NCI60 five-dose screen; conditions: Homo sapiens
[34] = system: Ovarian Cancer panel; test: NCI60 five-dose screen, panel mean; conditions: Homo sapiens, read-out: GI50 Mean
[35] = system: Leukemia panel; test: NCI60 five-dose screen, panel mean; conditions: Homo sapiens, read-out: GI50 Mean
[36] = system: RPMI-8226; test: NCI60 five-dose screen; conditions: Homo sapiens, RPMI-8226
[37] = system: Renal Cancer panel; test: NCI60 five-dose screen, panel mean; conditions: Homo sapiens, read-out: GI50 Mean
[38] = system: OVCAR-4; test: NCI60 one-dose screen; conditions: Homo sapiens, OVCAR-4, read-out: Growth percent
[39] = system: SK-OV-3; test: NCI60 five-dose screen; conditions: Homo sapiens, SK-OV-3
[40] = system: NCI-H226; test: NCI60 one-dose screen; conditions: Homo sapiens, NCI-H226, read-out: Growth percent
[41] = system: COLO 205; test: NCI60 five-dose screen; conditions: Homo sapiens, COLO 205
[42] = system: NCI-H322M; test: NCI60 five-dose screen; conditions: Homo sapiens
[43] = system: SNB-19; test: NCI60 one-dose screen; conditions: Homo sapiens, SNB-19, read-out: Growth percent
[44] = system: HCT-116; test: NCI60 one-dose screen; conditions: Homo sapiens, HCT-116, read-out: Growth percent
[45] = system: NCI-H322M; test: NCI60 one-dose screen; conditions: Homo sapiens, read-out: Growth percent
[46] = system: HCT-15; test: NCI60 five-dose screen; conditions: Homo sapiens, HCT-15

Question: What does the source list for CC[C@]12C=CCN3CC[C@@]4(c5ccc(OC)cc5N(C)[C@H]4[C@@](O)(C(=O)OC)[C@@H]1OC(=O)CCCC[P+](C1CCCCC1)(C1CCCCC1)C1CCCCC1)[C@@H]32 [10d]?
Answer: GI50 [1]: 1310 nM; activity at 10 µM [2]: -24.1%; activity at 10 µM [3]: 78.9%; activity at 10 µM [4]: -60.3%; activity at 10 µM [5]: -73.8%; activity at 10 µM [6]: -86.5%; activity at 10 µM [7]: -9.66%; activity at 10 µM [8]: -96.1%; activity at 10 µM [9]: -81.4%; activity at 10 µM [10]: -95.9%; activity at 10 µM [11]: -88%; activity at 10 µM [12]: -6.33%; GI50 [13]: 2850 nM; GI50 [14]: 1930 nM; activity at 10 µM [15]: -96.9%; activity at 10 µM [16]: 11.7%; activity at 10 µM [17]: -24%; GI50 [18]: 983 nM; GI50 [19]: 2600 nM; activity at 10 µM [20]: 9.52%; activity at 10 µM [21]: -60.2%; GI50 [22]: 1240 nM; GI50 [23]: 2610 nM; GI50 [24]: 1480 nM; GI50 [25]: 3170 nM; GI50 [26]: 2450 nM; activity at 10 µM [27]: 75.2%; activity at 10 µM [28]: -36.7%; GI50 [29]: 1380 nM; GI50 [30]: 1630 nM; GI50 [31]: 293 nM; activity at 10 µM [32]: -97.4%; GI50 [33]: 65500 nM; GI50 [34]: 11400 nM; GI50 [35]: 1220 nM; GI50 [36]: 412 nM; GI50 [37]: 8360 nM; activity at 10 µM [38]: 12.4%; GI50 [39]: 2280 nM; activity at 10 µM [40]: -22%; GI50 [41]: 377 nM; GI50 [42]: 5300 nM; activity at 10 µM [43]: -71.1%; activity at 10 µM [44]: 4.69%; activity at 10 µM [45]: 16.1%; GI50 [46]: 16100 nM
